From PubChem BioAssay AID330 (DTP/NCI, 2004)
Where “and” joins values, the source holds several entries; their conditions need not be identical. Identical values can stand only once. Toxic doses and inconclusive results are not listed. The calls were made as follows: active = survival T/C of 150% or more; inactive = T/C below 125% in these data.

Tested on: P388 leukemia ip, CD2F1 mice, survival T/C
Assay: NCI In Vivo Anticancer Drug Screen. Data for tumor model P388 Leukemia (intraperitoneal) in CD2F1 (CDF1) mice
Conditions: endpoint: median survival time, higher = longer survival
Method in brief: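 Mice carrying the transplanted tumor received test compound or vehicle. Survival was recorded in each group, and the value is the treated-group measurement divided by that of the vehicle-treated control group.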

[1] = dose: 100.0 mg/kg/injection, schedule: Q01DX001 (ip), vehicle: Klucel (hydroxypropylcellulose) (HPC)
[2] = dose: 200.0 mg/kg/injection, schedule: Q01DX001 (ip), vehicle: Klucel (hydroxypropylcellulose) (HPC)
[3] = dose: 50.0 mg/kg/injection, schedule: Q01DX009 (ip), vehicle: saline with Tween-80
[4] = dose: 100.0 mg/kg/injection, schedule: Q01DX009 (ip), vehicle: saline with Tween-80
[5] = dose: 100.0 mg/kg/injection, schedule: Q04DX003 (ip), vehicle: saline with Tween-80
[6] = dose: 200.0 mg/kg/injection, schedule: Q04DX003 (ip), vehicle: saline with Tween-80
[7] = dose: 50.0 mg/kg/injection, schedule: Q01DX005 (ip), vehicle: Klucel (hydroxypropylcellulose) (HPC)
[8] = dose: 100.0 mg/kg/injection, schedule: Q01DX005 (ip), vehicle: Klucel (hydroxypropylcellulose) (HPC)
[9] = dose: 200.0 mg/kg/injection, schedule: Q01DX005 (ip), vehicle: Klucel (hydroxypropylcellulose) (HPC)
[10] = dose: 60.0 mg/kg/injection, schedule: Q01DX005 (ip), vehicle: saline with Tween-80
[11] = dose: 120.0 mg/kg/injection, schedule: Q01DX005 (ip), vehicle: saline with Tween-80
[12] = dose: 240.0 mg/kg/injection, schedule: Q01DX005 (ip), vehicle: saline with Tween-80
[13] = dose: 50.0 mg/kg/injection, schedule: Q01DX005 (ip), vehicle: saline with Tween-80
[14] = dose: 100.0 mg/kg/injection, schedule: Q01DX005 (ip), vehicle: saline with Tween-80
[15] = dose: 200.0 mg/kg/injection, schedule: Q01DX005 (ip), vehicle: saline with Tween-80

Measured: T/C

CCN(CC)c1c(C)c(-c2ccccc2)n[n+]([O-])c1-c1ccccc1
inactive: [1] 104 % of control | [2] 107 % of control | dose: 400.0 mg/kg/injection, schedule: Q01DX001 (ip), vehicle: Klucel (hydroxypropylcellulose) (HPC) 104 % of control

Nc1ccc2c(Cl)cc(Cl)cc2c1
inactive: [3] 100 % of control | [4] 104 % of control

CC(=O)SCCCCl
inactive: dose: 50.0 mg/kg/injection, schedule: Q04DX003 (ip), vehicle: saline with Tween-80 100 % of control | [5] 109 % of control | [6] 109 % of control

Cc1ccc(NC(=O)N2CCOCC2)cc1NC(=O)N1CCOCC1
inactive: dose: 50.0 mg/kg/injection, schedule: Q01DX009 (ip), vehicle: saline 100 % of control | dose: 100.0 mg/kg/injection, schedule: Q01DX009 (ip), vehicle: saline 91 % of control

Cc1ccc(C2CCC(C#N)=CN2C)cc1 (configuration not stated)
inactive: dose: 50.0 mg/kg/injection, schedule: Q01DX005 (ip), vehicle: Klucel + Tween-80 94 % of control | dose: 100.0 mg/kg/injection, schedule: Q01DX005 (ip), vehicle: Klucel + Tween-80 98 % of control | dose: 200.0 mg/kg/injection, schedule: Q01DX005 (ip), vehicle: Klucel + Tween-80 100 % of control

CCC1OCCN1C(C)C (configuration not stated)
inactive: [5] 104 % of control | [6] 100 % of control

CC1(C)CC(NCCO)=CC(=S)N1
inactive: [7] 103 % of control | [8] 101 % of control | [9] 99 % of control

O=C1C=CC2=Cc3ccccc3CN12
inactive: [10] 100 % of control | [11] 100 % of control | [12] 100 % of control

c1ccc(N=NC2=NN(c3ccccc3)CCS2)cc1
inactive: dose: 25.0 mg/kg/injection, schedule: Q01DX009 (ip), vehicle: saline with Tween-80 102 % of control and 107 % of control | [3] 102 % of control and 116 % of control | [4] 101 % of control and 107 % of control | dose: 200.0 mg/kg/injection, schedule: Q01DX009 (ip), vehicle: saline with Tween-80 100 % of control and 110 % of control

COC(=O)[C@@]12OC[C@]34[C@H]([C@@H](O)[C@@H]1O)[C@@]1(C)CC(=O)C(OC(=O)CC(=O)OC5=C(C)[C@@H]6C[C@H]7OC(=O)[C@H](OC(=O)C=C(C)C)[C@H]8[C@]9(C(=O)OC)OC[C@]78[C@H]([C@@H](O)[C@@H]9O)[C@@]6(C)CC5=O)=C(C)[C@@H]1C[C@H]3OC(=O)[C@H](OC(=O)C=C(C)C)[C@@H]24
inactive: dose: 0.3 mg/kg/injection, schedule: Q01DX009 (ip), vehicle: saline with Tween-80 106 % of control | dose: 0.6 mg/kg/injection, schedule: Q01DX009 (ip), vehicle: saline with Tween-80 107 % of control | dose: 0.9 mg/kg/injection, schedule: Q01DX009 (ip), vehicle: saline with Tween-80 113 % of control

C[N+](c1ccc(Cl)cc1)=S(C)(C)=O
inactive: dose: 6.25 mg/kg/injection, schedule: Q01DX009 (ip), vehicle: saline 99 % of control | dose: 12.5 mg/kg/injection, schedule: Q01DX009 (ip), vehicle: saline 94 % of control | dose: 25.0 mg/kg/injection, schedule: Q01DX009 (ip), vehicle: saline 98 % of control

Cc1cc(Nc2ccc(O)cc2)nc(N)n1
inactive: [13] 105 % of control | [14] 99 % of control | [15] 113 % of control

CSc1nc(C)c(C(=O)CCN2CCN(c3ccccn3)CC2)s1
inactive: dose: 60.0 mg/kg/injection, schedule: Q01DX005 (ip), vehicle: saline 104 % of control | dose: 120.0 mg/kg/injection, schedule: Q01DX005 (ip), vehicle: saline 113 % of control

C/C(=N\NC(=S)N1CCCCCC1)c1ccc[nH]1
inactive: dose: 100.0 mg/kg/injection, schedule: Q04DX002 (ip), vehicle: Klucel (hydroxypropylcellulose) (HPC) 111 % of control | dose: 200.0 mg/kg/injection, schedule: Q04DX002 (ip), vehicle: Klucel (hydroxypropylcellulose) (HPC) 102 % of control | dose: 400.0 mg/kg/injection, schedule: Q04DX002 (ip), vehicle: Klucel (hydroxypropylcellulose) (HPC) 107 % of control

Cn1c2ccc(Cl)cc2c2c3ncncc3ccc21
inactive: dose: 50.0 mg/kg/injection, schedule: Q01DX001 (ip), vehicle: Klucel (hydroxypropylcellulose) (HPC) 96 % of control | [1] 89 % of control | [2] 91 % of control

CC(C)(C)/C(O)=C/c1nc2ccc(Cl)cc2[nH]c1=O
inactive: dose: 7.5 mg/kg/injection, schedule: Q01DX005 (ip), vehicle: Klucel + Tween-80 97 % of control | dose: 15.0 mg/kg/injection, schedule: Q01DX005 (ip), vehicle: Klucel + Tween-80 92 % of control | dose: 30.0 mg/kg/injection, schedule: Q01DX005 (ip), vehicle: Klucel + Tween-80 88 % of control | dose: 240.0 mg/kg/injection, schedule: Q01DX005 (ip), vehicle: Klucel + Tween-80 90 % of control

COc1ccc(OC)c2c1CC(C(C)=O)CC2=O (configuration not stated)
inactive: dose: 12.5 mg/kg/injection, schedule: Q01DX009 (ip), vehicle: other 99 % of control | dose: 25.0 mg/kg/injection, schedule: Q01DX009 (ip), vehicle: other 112 % of control | dose: 50.0 mg/kg/injection, schedule: Q01DX009 (ip), vehicle: other 105 % of control | dose: 100.0 mg/kg/injection, schedule: Q01DX009 (ip), vehicle: other 108 % of control | dose: 200.0 mg/kg/injection, schedule: Q01DX009 (ip), vehicle: other 107 % of control

COc1cc2c(cc1OC)[C@H](c1cc(OC)c3c(c1)OCO3)[C@H]1C(=O)OCC1C2 (some centres not stated)
inactive: dose: 15.0 mg/kg/injection, schedule: Q01DX005 (ip), vehicle: saline with Tween-80 89 % of control | dose: 30.0 mg/kg/injection, schedule: Q01DX005 (ip), vehicle: saline with Tween-80 88 % of control | [10] 90 % of control and 92 % of control | [11] 98 % of control | [12] 99 % of control

COc1ccc(CCNC(=O)c2c3nc4c(C(=O)NCCc5ccc(OC)c(OC)c5)ccc(C)c4oc-3c(C)c(=O)c2N)cc1OC
inactive: dose: 100.0 mg/kg/injection, schedule: Q04DX003 (ip), vehicle: saline + alcohol 104 % of control | dose: 200.0 mg/kg/injection, schedule: Q04DX003 (ip), vehicle: saline + alcohol 102 % of control | dose: 400.0 mg/kg/injection, schedule: Q04DX003 (ip), vehicle: saline + alcohol 105 % of control

COc1ccccc1C1OCC(C)(C)N1C (configuration not stated)
inactive: dose: 18.75 mg/kg/injection, schedule: Q01DX001 (ip), vehicle: saline sonified 100 % of control | dose: 37.5 mg/kg/injection, schedule: Q01DX001 (ip), vehicle: saline sonified 95 % of control | dose: 75.0 mg/kg/injection, schedule: Q01DX001 (ip), vehicle: saline sonified 110 % of control | dose: 75.0 mg/kg/injection, schedule: Q04DX003 (ip), vehicle: saline with Tween-80 105 % of control | dose: 150.0 mg/kg/injection, schedule: Q04DX003 (ip), vehicle: saline with Tween-80 105 % of control | dose: 300.0 mg/kg/injection, schedule: Q04DX003 (ip), vehicle: saline with Tween-80 100 % of control

O=C(O)CCCc1ccc(N(CCO)CCO)cc1
inactive: dose: 100.0 mg/kg/injection, schedule: Q04DX003 (ip), vehicle: saline 114 % of control | dose: 200.0 mg/kg/injection, schedule: Q04DX003 (ip), vehicle: saline 109 % of control | dose: 400.0 mg/kg/injection, schedule: Q04DX003 (ip), vehicle: saline 103 % of control

N#CC(C(=O)CCCC(=O)Nc1cccc([N+](=O)[O-])c1)c1c(Cl)cccc1Cl (configuration not stated)
inactive: [13] 111 % of control | [14] 111 % of control | [15] 105 % of control

Cc1ccc(NP2(Nc3ccc(C)cc3)=NP(Nc3ccc(C)cc3)(Nc3ccc(C)cc3)=NP(Nc3ccc(C)cc3)(Nc3ccc(C)cc3)=NP(Nc3ccc(C)cc3)(Nc3ccc(C)cc3)=N2)cc1
inactive: [7] 101 % of control | [8] 99 % of control | [9] 101 % of control

C#CC(C)(CC(C)C)OCCN(CC)CC (configuration not stated)
inactive: dose: 6.25 mg/kg/injection, schedule: Q01DX005 (ip), vehicle: saline with Tween-80 106 % of control | dose: 12.5 mg/kg/injection, schedule: Q01DX005 (ip), vehicle: saline with Tween-80 104 % of control | dose: 25.0 mg/kg/injection, schedule: Q01DX005 (ip), vehicle: saline with Tween-80 104 % of control
